In patent publication US20220290237A1, “METHOD FOR PREDICTING THE RESPONSE OF ANTIPSYCHOTIC DRUGS” (INSERM (INSTITUT NATIONAL DE LA SANTÉ ET DE LA RECHERCHE …, priority 2019, published 2022):

Tested on: total RNA from PBMCs
Assay: RNA-seq gene expression before and after 4 weeks of amisulpride treatment
Type: in vivo, human
From the text: The cohort analysed in this study was obtained from the OPTiMiSE clinical trial (http://www.optimisetrial.eu) (29). After providing written informed consent, 491 patients with a first episode psychosis were included and 453 started medication. All patients were diagnosed with schizophrenia, schizophreniform disorder or schizoaffective disorder according to the Diagnostic and Statistical Manual of Mental Disorders, Fourth Edition (DSM-IV) and confirmed on the basis of the Mini International Neuropsychiatric Interview Plus (M.I.N.I. Plus) (30) (table 4). At baseline, patients were medication-naïve or minimally-treated (any antipsychotic medication used for […] 2 weeks in the previous year or for a total of 6 weeks in their lifetime) and were ill for no longer than 2 years. Only subjects involved in the single-treatment arm (phase 1) of the trial were considered for this study (29). All patients were treated for 4 weeks with amisulpride (200-800 mg/day orally). At the end of the 4-week treatment, the blood concentration of antipsychotic used has been determined. This measurement provided a reliable indication of the treatment compliance of individual patients.
A DNase digestion procedure was added after extraction. Total RNA was purified using the RNA Clean & Concentrator™-5 kit following the manufacturer's instructions (Zymo Research Corp., Irvine, USA). RNA quantification was performed on a NanoDrop™ 8000 spectrophotometer, in duplicate. The quality and integrity of the RNA samples were assessed using an Agilent Bioanalyzer 2100 and the RNA6000 Nano Labchip kit (Agilent Technologies). Only samples with an RNA integrity number (RIN) higher than 7 were selected. Three hundred and seventy-six RNA samples fulfilled quality control criteria for RNA-seq analyses, corresponding to two RNA samples (one at inclusion and one after 4 weeks of treatment) for 188 subjects. Forty-eight additional RNAs were available for replication studies, in 24 independent subjects.
All libraries were prepared using the Illumina TruSeq Stranded Total RNA with Ribo-Zero Globin kit (Illumina Inc., San Diego, Calif., U.S.A.), which removes ribosomal RNA and globin mRNA. Libraries were prepared using one microgram of total RNA as initial input and following the standard protocols. After library quality control, 2×100 bp paired-end (PE) sequencing was performed on a HiSeq4000 system (Illumina), pooling a maximum of 6 samples on each lane, in order to reach 40 to 50 million of PE-reads for each sample. The Illumina pipeline was used to generate raw RNA sequencing data (fastq files) for each sample. Sequence quality controls were performed, using FastQC and in-house bioinformatics pipelines, from a sampling of 2×10 million reads in order to assess the levels of read duplicates, adapters, remaining rRNA and the GC content. Reads were trimmed for adapters and low-quality bases (Phred quality score <30) using Trimmomatic software (v.0.32). Reads were then mapped to the Genome Reference Consortium human genome assembly 37 (GRCh37) reference genome (hg19) using Tophat software (v.2.0.13). Read mapping quality was assessed using RNA-SeQC software. Then, gene-level quantification in read counts was performed by HTSeq software (v.0.6.1), using gene annotation from Ensembl v.86. All downstream analyses were conducted using the statistical software R (v.3.2.4) and Bioconductor R packages. Genes with counts-per million (cpm) below 1 in more than two third of the samples were considered unexpressed and removed from the analysis using edgeR package (v.3.12.1). Raw gene counts matrix has been normalized to account for differences in sequencing depth and RNA composition using the “median ratio” method implemented in the DESeq2 package (v.1.16.1). To avoid batch effects as confounding factors, all subjects had their 2 time-points in a same batch. […]

[1] = good responders (n = 113), 4 weeks amisulpride
[2] = poor responders (n = 75), 4 weeks amisulpride

CCN1CCCC1CNC(=O)c1cc(S(=O)(=O)CC)c(N)cc1OC (stereo not drawn) [amisulpride, 4-amino-N-((1-ethyl-2-pyrrolidinyl)methyl)-5-(etgylsulfonyl)-2-methoxybenzamide]
FC, fold-change at week 4 relative to the expression level at inclusion: DHRS13 (DHRS13, poor responders (n = 75), 4 weeks amisulpride): 1.04 | FC, fold-change at week 4 relative to the expression level at inclusion: FAT1 [1]: 1.27 | FC, fold-change at week 4 relative to the expression level at inclusion: FAT1 [2]: 1.20 | FC, fold-change at week 4 relative to the expression level at inclusion: FBXL13 [1]: 0.85 | FC, fold-change at week 4 relative to the expression level at inclusion: FBXL13 [2]: 0.92 | FC, fold-change at week 4 relative to the expression level at inclusion: GALNT14 [1]: 0.78 | FC, fold-change at week 4 relative to the expression level at inclusion: GALNT14 [2]: 1.04 | FC, fold-change at week 4 relative to the expression level at inclusion: GUCY1B3 [1]: 1.14 | FC, fold-change at week 4 relative to the expression level at inclusion: GUCY1B3 [2]: 1.05 | FC, fold-change at week 4 relative to the expression level at inclusion: HOMER3 [1]: 0.84 | FC, fold-change at week 4 relative to the expression level at inclusion: HOMER3 [2]: 1.09 | FC, fold-change at week 4 relative to the expression level at inclusion: KAZN [1]: 0.83 | FC, fold-change at week 4 relative to the expression level at inclusion: KAZN [2]: 0.94 | FC, fold-change at week 4 relative to the expression level at inclusion: KIAA0319 [1]: 0.83 | FC, fold-change at week 4 relative to the expression level at inclusion: KIAA0319 [2]: 0.94 | FC, fold-change at week 4 relative to the expression level at inclusion: LINC00963 [1]: 0.91 | FC, fold-change at week 4 relative to the expression level at inclusion: LINC00963 [2]: 1.08 | FC, fold-change at week 4 relative to the expression level at inclusion: NFE4 [1]: 0.83 | FC, fold-change at week 4 relative to the expression level at inclusion: NFE4 [2]: 0.95 | FC, fold-change at week 4 relative to the expression level at inclusion: NLRP6 [1]: 0.81 | FC, fold-change at week 4 relative to the expression level at inclusion: NLRP6 [2]: 1.09 | FC, fold-change at week 4 relative to the expression level at inclusion: NLRP12 [1]: 0.87 | FC, fold-change at week 4 relative to the expression level at inclusion: NLRP12 [2]: 1.08 | FC, fold-change at week 4 relative to the expression level at inclusion: P2RY12 [1]: 1.14 | FC, fold-change at week 4 relative to the expression level at inclusion: P2RY12 [2]: 1.10 | FC, fold-change at week 4 relative to the expression level at inclusion: P4HA2 [1]: 0.89 | FC, fold-change at week 4 relative to the expression level at inclusion: P4HA2 [2]: 1.04 | FC, fold-change at week 4 relative to the expression level at inclusion: PLB1 [1]: 0.85 | FC, fold-change at week 4 relative to the expression level at inclusion: PLB1 [2]: 0.99 | FC, fold-change at week 4 relative to the expression level at inclusion: SLC4A4 [1]: 1.15 | FC, fold-change at week 4 relative to the expression level at inclusion: SLC4A4 [2]: 0.93 | FC, fold-change at week 4 relative to the expression level at inclusion: TRPC6 [1]: 1.26 | FC, fold-change at week 4 relative to the expression level at inclusion: TRPC6 [2]: 0.97 | FC, fold-change at week 4 relative to the expression level at inclusion: WLS [1]: 0.87 | FC, fold-change at week 4 relative to the expression level at inclusion: WLS [2]: 0.98 | DEGs before vs after treatment that survived BH-correction (good responders only, FDR threshold of 0.1, 16,204 genes expressed in PBMCs): 32 genes
